Laboratory results taken from patent US20250388565A1, “ESTROGEN RECEPTOR ALPHA DEGRADERS AND METHODS OF USE THEREOF” (Relay Therapeutics, Inc., priority 2022, published 2025).

Target: T1, ERα protein (HiBiT-tagged) in ESR1_HiBiT KI MCF7 cells (Homo sapiens, UniProt P03372)
T1 sequence (P03372 1-595): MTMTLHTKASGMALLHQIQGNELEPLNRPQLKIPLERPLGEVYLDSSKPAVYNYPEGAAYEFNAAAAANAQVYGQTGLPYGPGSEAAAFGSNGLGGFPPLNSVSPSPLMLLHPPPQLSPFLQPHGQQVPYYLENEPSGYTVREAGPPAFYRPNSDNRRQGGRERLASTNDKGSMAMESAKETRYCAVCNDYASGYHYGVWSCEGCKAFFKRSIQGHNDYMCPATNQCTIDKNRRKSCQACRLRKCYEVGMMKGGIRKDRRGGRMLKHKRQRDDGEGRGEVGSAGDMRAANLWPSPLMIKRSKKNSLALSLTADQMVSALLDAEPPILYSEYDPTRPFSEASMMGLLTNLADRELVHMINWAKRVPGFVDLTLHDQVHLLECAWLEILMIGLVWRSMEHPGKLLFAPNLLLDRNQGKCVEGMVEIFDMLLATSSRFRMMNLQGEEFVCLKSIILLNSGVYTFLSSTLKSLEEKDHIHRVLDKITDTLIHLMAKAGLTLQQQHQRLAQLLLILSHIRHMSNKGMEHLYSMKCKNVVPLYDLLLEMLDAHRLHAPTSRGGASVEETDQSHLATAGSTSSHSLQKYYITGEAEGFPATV
Experiment: Nano Glo HiBiT Lytic Degradation Assay
Assay type: cell-based
Settings: 6 hours with compound, 14-point dose response 1:3, bell-shape curve fit, half-maximal effect of first Hill model, read-out: MCF7 ESR1 HiBiT - (DC50)
Summary of the method: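 HiBiT-tagged endogenous ERα remaining in MCF7 knock-in cells was quantified by lytic luminescence after a 6 h treatment. DC50 values derive from a bell-shaped curve, taken at the first Hill component's half-maximal effect.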

Compound	DC50 [nM]
C[C@@H]1OC2(CCCCC2)[C@H](c2ccc(N3CCC(CN4CCN(c5ccc6c(c5)CN([C@H]5CCC(=O)NC5=O)C6=O)CC4)CC3)cc2)c2ccc(O)cc21 [Compound I-83, (S)-3-(5-(4-((1-(4-((1′S,4′R)-7′-hydroxy-1′-methylspiro[cyclohexane-1,3′-isochroman]-4′-yl)phenyl)piperidin-4-yl)methyl)piperazin-1-yl)-1-oxoisoindolin-2-yl)piperidine-2,6-dione]	1
C[C@H](C1CCN(c2ccc([C@@H]3c4ccc(O)cc4CC[C@@H]3c3ccccc3)cc2)CC1)N1CCN(c2ccc3c(c2)CN(C2CCC(=O)NC2=O)C3=O)CC1 (single isomer, unassigned) [II-69]	0.51
C[C@]1(C2CCCCC2)OCc2cc(O)ccc2[C@H]1c1ccc(N2CCC(CN3CCN(c4ccc5c(c4)CN([C@H]4CCC(=O)NC4=O)C5=O)CC3)CC2)cc1 (single isomer, unassigned) [Compound I-418]	0.33
O=C1CCC(c2ccc3c(c2)CN(C2CCN(CC4CCN(c5ccc([C@H]6c7ccc(O)cc7CC[C@H]6c6ccccc6)cc5)CC4)CC2)CC3)C(=O)N1 (stereo in doubt) [Compound I-185, 3-(2-(1-((1-(4-((1S,2R)-6-hydroxy-2-phenyl-1,2,3,4-tetrahydronaphthalen-1-yl)phenyl)piperidin-4-yl)methyl)piperidin-4-yl)-1,2,3,4-tetrahydroisoquinolin-7-yl)piperidine-2,6-dione]	737
C[C@H]1CN(c2ccc3c(c2)CN([C@H]2CCC(=O)NC2=O)C3=O)CCN1CC1CCN(c2ccc([C@@H]3c4ccc(O)cc4CC[C@@H]3c3ccccc3)cc2)CC1 (single isomer, unassigned) [II-1]	2
COc1cc(N2CCC(CN3CCN(c4ccc5c(c4)CN([C@H]4CCC(=O)NC4=O)C5=O)CC3)CC2)c(-c2ccccc2)cc1[C@H]1CCC(F)(F)c2cc(O)ccc21 [Compound I-406]	25
O=C1CC[C@H](N2Cc3cc(N4CCN(CC5CCN(c6ccc([C@@H]7c8ccc(O)cc8CC[C@@H]7C7=CCCCC7)cc6)CC5)CC4)ccc3C2=O)C(=O)N1 (single isomer, unassigned) [Compound I-407]	0.19
O=C1CC[C@@H](N2Cc3cc(N4CCC(CN5CCC(n6cc([C@@H]7c8ccc(O)cc8CC[C@@H]7c7ccccc7)cn6)CC5)CC4)ccc3C2=O)C(=O)N1 (single isomer, unassigned) [Compound I-48]	≥ 10000
O=C1CCC(N2Cc3cc(N4CCN(CC5CCN(c6ccc([C@@H]7c8ccc(O)cc8C(F)(F)C[C@@H]7c7ccccc7)cc6)CC5)CC4)ccc3C2=O)C(=O)N1 (stereo partly drawn) [Compound I-305, 3-(5-(4-((1-(4-((1R,2S)-4,4-difluoro-6-hydroxy-2-phenyl-1,2,3,4-tetrahydronaphthalen-1-yl)phenyl)piperidin-4-yl)methyl)piperazin-1-yl)-1-oxoisoindolin-2-yl)piperidine-2,6-dione]	0.32
O=C1CCC(N2Cc3cc([C@H]4CCN(CC5CCN(c6ccc([C@@H]7c8ccc(O)cc8CC[C@@H]7c7ccccc7)cc6)CC5)CC4(F)F)ccc3C2=O)C(=O)N1 (single isomer, unassigned) [II-92]	6
O=C1CC[C@H](N2Cc3cc(N4CCN(CC5CCN(c6ccc([C@H]7c8ccc(O)cc8CCC78CCCCC8)cc6)CC5)CC4)ccc3C2=O)C(=O)N1 [Compound I-142]	≥ 10000
O=C1CC[C@H](N2Cc3cc(N4CCN(CC5CCN(c6ccc([C@@H]7c8ccc(O)cc8CC[C@@H]7c7cccc(OC(F)(F)F)c7)cc6)CC5)CC4)ccc3C2=O)C(=O)N1 (single isomer, unassigned) [Compound I-109]	1400
Cc1cc(N2CCC3(CCN(CC4CCN(c5ccc([C@@H]6c7ccc(O)cc7C(F)(F)C[C@@H]6c6ccccc6)cc5)CC4)C3)CC2)ccc1N1CCC(=O)NC1=O (single isomer, unassigned) [Compound I-294]	0.28
Cc1cc(F)c([C@H]2CCc3cc(O)ccc3[C@H]2c2ccc(N3CCC(CN4CCN(c5ccc6c(c5)CN([C@H]5CCC(=O)NC5=O)C6=O)CC4)CC3)cc2)cc1F [II-75]	0.73
O=C1CC[C@@H](N2Cc3cc(N4CCN(CC5CCN(c6ccc([C@@H]7c8ccc(O)cc8C(F)(F)C[C@@H]7c7ccc(F)cc7)cc6)CC5)CC4)ccc3C2=O)C(=O)N1 [Compound I-310, (R)-3-(5-(4-((1-(4-((1R,2S)-4,4-difluoro-2-(4-fluorophenyl)-6-hydroxy-1,2,3,4-tetrahydronaphthalen-1-yl)phenyl)piperidin-4-yl)methyl)piperazin-1-yl)-1-oxoisoindolin-2-yl)piperidine-2,6-dione]	5.74
O=C1CCC(n2ncc3cc(N4CCN(CC5CCN(c6ccc([C@@H]7c8ccc(O)cc8CC[C@@H]7c7ccccc7)cc6)CC5)CC4)ccc32)C(=O)N1 (stereo partly drawn) [Compound I-302]	2
C[C@H]1O[C@H](c2ccccc2)[C@H](c2ccc(N3CCC(CN4CCN(c5ccc6c(c5)CN([C@H]5CCC(=O)NC5=O)C6=O)CC4)CC3)cc2)c2ccc(O)cc21 (single isomer, unassigned) [Compound I-367]	0.24
O=C1CCN(c2ccc(N3CCC4(CCN(CC5CCN(c6ccc([C@@H]7c8ccc(O)cc8C(F)(F)C[C@@H]7c7ccccc7)cc6)CC5)C4)CC3)cc2)C(=O)N1 [Compound I-292, 1-(4-(2-((1-(4-((1R,2S)-4,4-difluoro-6-hydroxy-2-phenyl-1,2,3,4-tetrahydronaphthalen-1-yl)phenyl)piperidin-4-yl)methyl)-2,8-diazaspiro[4.5]decan-8-yl)phenyl)dihydropyrimidine-2,4 (1H,3H)-dione]	0.73
Cn1c(=O)n([C@H]2CCC(=O)NC2=O)c2ccc(N3CCN(CC4CCN(c5ccc([C@@H]6c7ccc(O)cc7C(F)(F)C[C@@H]6c6ccccc6)cc5)CC4)CC3)cc21 (single isomer, unassigned) [Compound I-277]	0.3
O=C1CC[C@H](N2Cc3cc(N4CCN(CC5CCN(c6ccc([C@H]7c8ccc(O)cc8CC[C@H]7C7=CCCCC7)cc6)CC5)CC4)ccc3C2=O)C(=O)N1 (single isomer, unassigned) [Compound I-416]	0.44
Cn1nc(N2CCC(=O)NC2=O)c2ccc(N3CCN(CC4CCN(c5ccc([C@@H]6c7ccc(O)cc7CO[C@@H]6c6ccccc6)cc5)CC4)CC3)cc21 [Compound I-396, 1-(6-(4-((1-(4-((3S,4R)-7-hydroxy-3-phenylisochroman-4-yl)phenyl)piperidin-4-yl)methyl)piperazin-1-yl)-1-methyl-1H-indazol-3-yl)dihydropyrimidine-2,4 (1H,3H)-dione]	0.99
O=C1CC[C@H](N2Cc3cc(N4CCN(CC5CCN(c6ccc([C@H]7c8ccc(O)cc8CC[C@H]7CC7CCCC7)cc6)CC5)CC4)ccc3C2=O)C(=O)N1 [Compound I-120, (S)-3-(5-(4-((1-(4-((1S,2S)-2-(cyclopentylmethyl)-6-hydroxy-1,2,3,4-tetrahydronaphthalen-1-yl)phenyl)piperidin-4-yl)methyl)piperazin-1-yl)-1-oxoisoindolin-2-yl)piperidine-2,6-dione]	≥ 10000
O=C1CCC(N2Cc3cc(N4CCN(CC5CCC(c6ccc([C@@H]7c8ccc(O)cc8CC[C@@H]7c7ccccc7)cc6)CC5)CC4)ccc3C2=O)C(=O)N1 (stereo partly drawn) [II-53]	0.22
O=C1CC[C@H](N2Cc3cc(N4CCN(CC5CCN(c6cc(F)c(C7=C(c8ccccc8)CCc8cc(O)ccc87)c(F)c6)CC5)CC4)ccc3C2=O)C(=O)N1 [Compound I-10, (S)-3-(5-(4-((1-(3,5-difluoro-4-(6-hydroxy-2-phenyl-3,4-dihydronaphthalen-1-yl)phenyl)piperidin-4-yl)methyl)piperazin-1-yl)-1-oxoisoindolin-2-yl)piperidine-2,6-dione]	16
C[C@@H]1CCc2cc(O)ccc2[C@@H]1c1ccc(N2CCC(CN3CCN(c4ccc5c(c4)CN([C@H]4CCC(=O)NC4=O)C5=O)CC3)CC2)cc1 [Compound I-125, (S)-3-(5-(4-((1-(4-((1S,2R)-6-hydroxy-2-methyl-1,2,3,4-tetrahydronaphthalen-1-yl)phenyl)piperidin-4-yl)methyl)piperazin-1-yl)-1-oxoisoindolin-2-yl)piperidine-2,6-dione]	3300
Cc1ccccc1[C@H]1CC(F)(F)c2cc(O)ccc2[C@H]1c1ccc(N2CCC(CN3CCN(c4ccc5c(c4)CN([C@H]4CCC(=O)NC4=O)C5=O)CC3)CC2)cc1 [Compound I-322, (S)-3-(5-(4-((1-(4-((1R,2S)-4,4-difluoro-6-hydroxy-2-(o-tolyl)-1,2,3,4-tetrahydronaphthalen-1-yl)phenyl)piperidin-4-yl)methyl)piperazin-1-yl)-1-oxoisoindolin-2-yl)piperidine-2,6-dione]	0.56
Cn1nc([C@@H]2CCC(=O)NC2=O)c2ccc(N3CCN(CC4CCN(c5ccc([C@@H]6c7ccc(O)cc7CO[C@@H]6c6ccccc6)cc5)CC4)CC3)cc21 (single isomer, unassigned) [Compound I-395]	0.28
